According to patent US11274115B2, “Imidazoquinoline derivatives and their use in therapy” (GLAXOSMITHKLINE BIOLOGICALS SA, priority 2016, dated 2022):
pEC50: −log10 of the molar value. Like-named read-outs stand apart in the source and are kept apart here.

Columns and labels:
Assay type in all cases: cell-based
human TLR7 = molecular target: T1, human TLR7 (Homo sapiens, UniProt Q9NYK1); assay: hTLR7 agonist reporter assay in HEK293 cells (NFκB-SEAP); conditions: for hTLR7/8 ratio: hTLR7 ED50 over hTLR8 ED50; for pEC50: read-out: hTLR7 ED50
T1 construct: host or cells: HEK293
T1 sequence (Q9NYK1 27-1049): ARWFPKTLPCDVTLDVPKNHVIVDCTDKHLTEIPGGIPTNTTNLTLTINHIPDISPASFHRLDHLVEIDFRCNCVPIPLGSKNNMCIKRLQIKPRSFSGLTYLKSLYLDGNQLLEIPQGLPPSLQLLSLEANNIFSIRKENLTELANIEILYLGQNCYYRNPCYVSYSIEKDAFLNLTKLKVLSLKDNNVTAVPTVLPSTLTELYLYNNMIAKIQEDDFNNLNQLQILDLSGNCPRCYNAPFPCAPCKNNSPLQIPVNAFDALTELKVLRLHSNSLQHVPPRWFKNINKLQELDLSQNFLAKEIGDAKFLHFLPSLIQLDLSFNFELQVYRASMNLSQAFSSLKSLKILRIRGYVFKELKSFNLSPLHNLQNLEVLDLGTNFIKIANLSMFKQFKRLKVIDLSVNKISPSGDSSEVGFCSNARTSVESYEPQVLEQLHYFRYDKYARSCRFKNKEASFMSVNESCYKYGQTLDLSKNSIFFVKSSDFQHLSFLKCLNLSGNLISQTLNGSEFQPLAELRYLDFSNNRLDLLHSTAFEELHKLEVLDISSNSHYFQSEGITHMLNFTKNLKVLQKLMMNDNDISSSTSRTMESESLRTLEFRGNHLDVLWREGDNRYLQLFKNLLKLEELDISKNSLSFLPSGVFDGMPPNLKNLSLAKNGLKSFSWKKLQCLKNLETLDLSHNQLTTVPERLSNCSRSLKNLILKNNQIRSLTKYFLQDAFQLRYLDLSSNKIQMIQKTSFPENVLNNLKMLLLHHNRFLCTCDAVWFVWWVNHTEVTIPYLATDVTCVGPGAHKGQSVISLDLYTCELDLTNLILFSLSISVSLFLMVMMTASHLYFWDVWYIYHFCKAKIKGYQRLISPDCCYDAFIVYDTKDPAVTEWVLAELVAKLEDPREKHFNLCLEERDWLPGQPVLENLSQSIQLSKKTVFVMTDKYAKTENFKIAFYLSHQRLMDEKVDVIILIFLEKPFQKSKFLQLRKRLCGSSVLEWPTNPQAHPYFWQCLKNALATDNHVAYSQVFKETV
Procedure: (§1) Assay for hTLR7 and hTLR8 Agonist Activity in HEK-293 Cells
(§2) Determination of TLR agonist activity was performed using the HEK293 […]. This assay measures TLR7 and TLR8 selectivity and potency of the compounds tested. HEK293 cells expressing human TLR7 or TLR8 and NFκB responsive Secreted Embryonic Alkaline Phosphatase (SEAP) reporter gene were obtained from InvivoGen (San Diego, Calif.). These cells were maintained in culture media of Dulbecco's Modified Eagle Medium (DMEM) (Invitrogen, Grand Island, N.Y.), 10% Fetal Bovine Serum (FBS) (Sigma, St. Louis, Mo.) and selection antibiotics (Invitrogen, and Invivogen). HEK293 stably transfected with human TLR7 (hTLR7) or human TLR8 (hTLR8) were stimulated for 24 h with aqueous formulations of test compounds and culture supernatants were analyzed for NFκB activation using the colorimetric SEAP detection kit QuantBlue (InvivoGen).

human TLR8 = molecular target: T2, human TLR8 (Homo sapiens, UniProt Q9NR97); assay: hTLR8 agonist reporter assay in HEK293 cells (NFκB-SEAP); conditions: for pEC50: read-out: hTLR8 ED50
T2 construct: host or cells: HEK293
T2 sequence (Q9NR97 27-1041): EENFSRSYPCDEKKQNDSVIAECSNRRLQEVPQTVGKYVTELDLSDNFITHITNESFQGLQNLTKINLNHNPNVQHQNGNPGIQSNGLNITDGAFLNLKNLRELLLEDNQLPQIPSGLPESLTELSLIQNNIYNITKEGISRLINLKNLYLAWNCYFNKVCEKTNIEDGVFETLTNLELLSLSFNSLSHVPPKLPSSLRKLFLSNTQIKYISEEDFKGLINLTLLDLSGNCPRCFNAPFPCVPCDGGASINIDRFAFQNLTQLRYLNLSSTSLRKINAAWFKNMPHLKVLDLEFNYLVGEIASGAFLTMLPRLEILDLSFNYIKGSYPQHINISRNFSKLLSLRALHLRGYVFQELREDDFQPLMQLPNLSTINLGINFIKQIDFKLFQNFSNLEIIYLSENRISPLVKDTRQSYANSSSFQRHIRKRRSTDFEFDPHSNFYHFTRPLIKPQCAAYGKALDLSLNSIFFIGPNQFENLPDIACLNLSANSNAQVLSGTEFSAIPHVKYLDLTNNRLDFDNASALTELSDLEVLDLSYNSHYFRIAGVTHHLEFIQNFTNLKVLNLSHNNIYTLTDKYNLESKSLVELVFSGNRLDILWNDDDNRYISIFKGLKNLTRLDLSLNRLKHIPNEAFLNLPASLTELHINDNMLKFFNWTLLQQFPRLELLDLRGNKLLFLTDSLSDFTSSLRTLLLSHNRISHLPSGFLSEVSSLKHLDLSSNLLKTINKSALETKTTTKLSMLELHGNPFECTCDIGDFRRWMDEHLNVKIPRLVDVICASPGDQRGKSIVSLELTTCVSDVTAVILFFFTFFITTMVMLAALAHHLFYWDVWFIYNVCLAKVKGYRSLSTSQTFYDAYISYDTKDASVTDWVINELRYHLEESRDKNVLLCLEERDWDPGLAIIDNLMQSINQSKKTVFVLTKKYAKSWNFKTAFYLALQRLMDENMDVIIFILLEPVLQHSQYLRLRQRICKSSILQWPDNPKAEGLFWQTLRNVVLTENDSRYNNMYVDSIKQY
Procedure: as §1, §2

[1] = tested on: human peripheral blood mononuclear cells (hPBMCs); assay: IFN-γ induction in hPBMCs; conditions: 24 h, FIG. 11, another occasion
Procedure: (§3) Assays to Measure Cytokine Induction
(§4) Test compounds were evaluated for cytokine induction in human peripheral blood mononuclear cells (hPBMCs).
(§5) Primary human PBMCs were isolated from fresh blood from healthy donors via Ficoll gradient separation and plated at 0.5×10^6 cells/well in 96-well tissue culture plates (RPMI-1640 plus 10% FBS). hPBMCs were maintained with RPMI-1640 culture media (Invitrogen, Grand Island, N.Y.), antibiotics (Invitrogen) and 10% FBS (Sigma).
(§6) Incubation and Assays for IFN-γ, IFN-α and TNF-α
(§7) hPBMCs were stimulated for 24 h with aqueous formulations of test compounds. Culture supernatants were analyzed for TNF-α and IFN-γ induction using multiplex kits (FluoroKine multiplex kits from R&D Systems, Minneapolis, Minn.) and for IFN-α induction using human IFN-α VeriKine ELISA kit (Pestka Biomedical Laboratories, Inc., Piscataway, N.J.).

[2] = tested on: human peripheral blood mononuclear cells (hPBMCs); assay: IFN-α induction in hPBMCs; conditions: 24 h
Procedure: as §3, §4, §5, §6, §7

[3] = tested on: human peripheral blood mononuclear cells (hPBMCs); assay: TNF-α induction in hPBMCs; conditions: 24 h
Procedure: as §3, §4, §5, §6, §7

[4] = Table 2, FIG. 3, another occasion, * = only very low levels of NFKB activation were detected
[5] = Table 2, FIG. 4, another occasion, * = only very low levels of NFKB activation were detected

SMILES	hTLR7/8 ratio (human TLR7; Table 1)	pEC50 (human TLR7; [4])	hTLR7/8 ratio (human TLR7; Table 2)	pEC50 (human TLR7; Table 3, FIG. 5, another occasion, * = only very low levels of NFKB activation were detected)	hTLR7/8 ratio (human TLR7; Table 3)	pEC50 (human TLR7; Table 4, FIG. 7, another occasion)	hTLR7/8 ratio (human TLR7; Table 4)	pEC50 (human TLR8; [5])	pEC50 (human TLR8; Table 3, FIG. 6, another occasion, * = only very low levels of NFKB activation were detected)	pEC50 (human TLR8; Table 4, FIG. 8, another occasion)	IFN-γ induction, in words [1]	IFN-α induction, in words ([2]; FIG. 14, another occasion)	IFN-α induction, in words ([2]; FIG. 16, another occasion)	TNF-α induction, in words ([3]; FIG. 13)	TNF-α induction, in words ([3]; FIG. 15, another occasion)	relative potency hTLR7 versus hTLR8, in words (human TLR7; Table 2)	hTLR7 agonist activity, in words (human TLR7; text on Table 2, FIG. 3)	hTLR8 agonist activity, in words (human TLR8; text on Table 2, FIG. 4)	IFN-α induction, in words ([2]; FIG. 12, another occasion)
CCCCc1nc2c(N)nc3ccccc3c2n1CCO [Comparative Example 1, reference compound]	3.1	6.00	2.3	5.96	1.5	5.82	2.4	6.40	6.14	6.21	the most potent at inducing IFN-γ	Weaker effects	induced little IFN-α	potent at inducing TNF-α	effective at inducing TNF-α	–	–	–	–
CCCCCCCC/C=C\CCCCCCCC(=O)OC[C@@H](O)COP(=O)(O)OCCOc1ccc2c(c1)nc(N)c1nc(CCCC)n(CCO)c12 [Example 3]	–	5.47	1.2	–	–	–	–	5.55	–	–	potent at inducing IFN-γ and each was more potent than Comparative Example 3	–	–	potent at inducing TNF-α	–	approximately equally potent at both receptors	potent agonist of hTLR7 and hTLR8	potent agonist of hTLR7 and hTLR8	more potent at inducing IFN-α than Comparative Examples 1, 2 and 3
